Measurements: patent US5753617A, “Peptide inhibitors of cellular adhesion” (Centocor, Inc., priority 1995, dated 1998)
Where a SMILES comes first, the peptide text is derived from it. Bridges are numbered along the chain shown (N, C = ends). [ ]: non-standard residue; d: D form. dPen = CC(C)(S)[C@@H](N)C(=O)O; Dap = NC[C@H](N)C(=O)O

target: T1, P-selectin (Homo sapiens, UniProt P16109); assay: Inhibition of human neutrophil adhesion to purified P-selectin immobilized on plastic wells; assay type: cell-based; details: inhibiting the binding of human neutrophils to P-selectin
T1 construct: P-selectin is isolated from human platelet lysates; from tissue; host or cells: human platelets (outdated platelet packs from a blood bank)
T1 sequence (P16109 42-830): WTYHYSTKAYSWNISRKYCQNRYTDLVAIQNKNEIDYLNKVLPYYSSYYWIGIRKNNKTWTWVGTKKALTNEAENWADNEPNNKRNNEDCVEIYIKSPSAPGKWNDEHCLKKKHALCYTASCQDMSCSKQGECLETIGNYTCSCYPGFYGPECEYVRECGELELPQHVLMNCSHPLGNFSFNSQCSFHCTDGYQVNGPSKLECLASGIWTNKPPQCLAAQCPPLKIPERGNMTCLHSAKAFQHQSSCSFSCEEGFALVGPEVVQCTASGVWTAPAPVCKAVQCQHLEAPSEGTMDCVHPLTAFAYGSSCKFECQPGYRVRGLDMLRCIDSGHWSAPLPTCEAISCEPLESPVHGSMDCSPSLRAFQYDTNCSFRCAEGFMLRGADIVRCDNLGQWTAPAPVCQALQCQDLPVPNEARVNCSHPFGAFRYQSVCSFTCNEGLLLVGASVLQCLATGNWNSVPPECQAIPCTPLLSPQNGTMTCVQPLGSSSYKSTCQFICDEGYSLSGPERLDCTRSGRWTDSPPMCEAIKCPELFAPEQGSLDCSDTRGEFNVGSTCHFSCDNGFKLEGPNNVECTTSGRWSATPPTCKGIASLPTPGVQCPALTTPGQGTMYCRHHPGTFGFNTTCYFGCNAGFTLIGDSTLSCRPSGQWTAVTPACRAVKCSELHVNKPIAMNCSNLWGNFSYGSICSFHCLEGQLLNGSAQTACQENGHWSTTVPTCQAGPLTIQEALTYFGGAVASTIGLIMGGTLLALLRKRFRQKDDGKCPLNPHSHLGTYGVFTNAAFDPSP
Source text: Peptides can be screened for their ability to inhibit adhesion to cells, for example, neutrophil adhesion to purified P-selectin immobilized on plastic wells, using the assay described by Geng, et al., Nature 343, 757-760 (1990). Human neutrophils are isolated from heparinized whole blood by density gradient centrifugation on Mono-Poly resolving media, Flow Laboratories. Neutrophil suspensions are greater than 98% pure and greater than 95% viable by trypan blue exclusion. For adhesion assays, neutrophils are suspended at a concentration of 2×10^6 cells/mL in Hanks' balanced salt solution containing 1.26 mM Ca^2+ and 0.81 mM Mg^2+ (HBSS, Gibco) with […] human serum albumin (HBSS/HSA). Adhesion assays are conducted in triplicate in 96-well microliter plates, Corning, incubated at 4° C. overnight with 50 microliters of various protein solutions. P-selectin is isolated from human platelet lysates by immunoaffinity chromatography on antibody S12-Sepharose™ and ion-exchange chromatography on a Mono-Q™ column (FLPC, Pharmacia Fine Chemicals), as follows. Outdated human platelet packs (100 units) obtained from a blood bank and stored at 4° C. are pooled, adjusted to 5 mM EDTA at pH 7.5, centrifuged at 4,000 rpm for 30 minutes in 1 liter bottles, then washed three times with 1 liter of 0.1M NaCl, 20 mM Tris pH 7.5 (TBS), 5 mM EDTA, 5 mM benzamidine. The pellets are then resuspended in a minimum amount of wash buffer and made 1 mM in DIFP, then frozen in 50 mL screwtop tubes at -80° C. The frozen platelets are thawed and resuspended in 50 mL TBS, 5 mM benzamidine, 5 mM EDTA pH 7.5, […]. The suspension is frozen and thawed two times in a dry ice-acetone bath using a 600 mL lyophilizing flask, then homogenized in a glass/teflon mortar and pestle and made 1 mM in DIFP. The NaCl concentration is adjusted to 0.5M with a stock solution of 4M NaCl. After stirring the suspension at 4° C., it is centrifuged in polycarbonate tubes at 33,000 rpm for 60 minutes at 4° C. The supernatant (0.5M NaCl wash) is removed and saved; this supernatant contains the soluble form of P-selectin. Care is taken not to remove the top part of the pellet with the supernatant. The pellets are then homogenized in extraction buffer (TBS, 5 mM benzamidine, 5 mM EDTA, pH 7.5, 100 μM leupeptin, 2% Triton X-100). After centrifugation at 19,500 rpm for 25 minutes at 4° C., the supernatant is removed. The extraction procedure is repeated with the pellet and the supernatant is combined with the first supernatant. The combined extracts, which contain the membrane form of P-selectin, are adjusted to 0.5M NaCl. The soluble fraction (0.5M NaCl wash) and the membrane extract (also adjusted to 0.5M NaCl) are absorbed with separate pools of the monoclonal antibody S12 (directed to P-selectin) previously couple […]) at 5 mg/mL for 2 hours at 4° C. After letting the resins settle, the supernatants are removed. The S12 Affigel containing bound GMP-140 is then loaded into a column and washed overnight at 4° C. with 400 mL of 0.5M NaCl, 20 mM Tris pH 7.5, 0.01% Lubrol PX. Bound P-selectin is eluted from the S12 Affigel with 100 mL of 80% ethylene glycol, 1 mM MES pH 6.0, 0.01% Lubrol PX. Peak fractions with absorbance at 280 nm are pooled. Eluates are dialyzed against TBS with 0.05% Lubrol, then applied to a Mono Q column (FPLC from Pharmacia). The concentrated protein is step eluted with 2M NaCl, 20 mM Tris pH 7.5 (plus 0.05% Lubrol PX for the membrane fraction). Peak fractions are dialyzed into TBS pH 7.5 (plus 0.05% Lubrol PX for the membrane fraction). P-selectin is plated at 5 micrograms/mL and the control proteins: human serum albumin (Alb), platelet glycoprotein IIb/IIIa (IIb), von Willebrand factor (vWF), fibrinogen (FIB), thrombomodulin (TM), gelatin (GEL) or human serum (HS), are added at 50 micrograms/mL. […]

`CC[C@H](C)[C@@H]1NC(=O)[C@H](CCCCN)NC(=O)[C@@H](N)CCCCNC(=O)CC[C@@H](C(=O)N[C@@H](Cc2c[nH]c3ccccc23)C(=O)N[C@H](C(=O)N[C@@H](Cc2c[nH]c3ccccc23)C(=O)N[C@H](C(N)=O)C(C)C)[C@@H](C)O)NC(=O)CNC(=O)CNC1=O` [(2)] (H-KKIGGEWTWV-NH2; lactam 1-6) and `CC(C)[C@H](NC(=O)[C@H](Cc1c[nH]c2ccccc12)NC(=O)[C@@H](NC(=O)[C@H](Cc1c[nH]c2ccccc12)NC(=O)[C@@H]1CSSC[C@H](N)C(=O)N[C@@H](CCCNC(=N)N)C(=O)NCC(=O)NCC(=O)N1)[C@@H](C)O)C(N)=O` [(6)] (H-CRGGCWTWV-NH2; disulfide 1-5) are within 1.5-fold of each other in IC50: 69 µM for the first, 54 µM for the second.

Compared with `CC[C@H](C)[C@@H]1NC(=O)CNC(=O)CNC(=O)[C@H]([C@@H](C)CC)NC(=O)[C@H](CCCCN)NC(=O)[C@@H](N)CSSC[C@@H](C(N)=O)NC(=O)[C@H](Cc2c[nH]c3ccccc23)NC(=O)[C@H]([C@@H](C)O)NC(=O)[C@H](Cc2c[nH]c3ccccc23)NC1=O` [(3)] (H-CKIGGIWTWC-NH2; disulfide 1-10), `CC[C@H](C)[C@@H]1NC(=O)[C@@H](NC(=O)[C@@H](N)CCCNC(=N)N)CSSC[C@@H](C(=O)N[C@@H](Cc2c[nH]c3ccccc23)C(=O)N[C@H](C(=O)N[C@@H](Cc2c[nH]c3ccccc23)C(=O)N[C@H](C(N)=O)C(C)C)[C@@H](C)O)NC(=O)CNC(=O)CNC1=O` [(5)] (H-RCIGGCWTWV-NH2; disulfide 2-6) is 3.6-fold lower in IC50: 131 µM for the first, 36 µM for the second.

First: C[C@@H](O)[C@H](NC(=O)[C@H](Cc1c[nH]c2ccccc12)NC(=O)[C@@H]1CSSC[C@H](NC(=O)[C@H](CCCCN)NC(=O)[C@@H](N)CCCNC(=N)N)C(=O)NCC(=O)NCC(=O)N1)C(=O)N[C@@H](Cc1c[nH]c2ccccc12)C(N)=O [(7)] (H-RKCGGCWTW-NH2; disulfide 3-6)
Second: C[C@H](O)[C@@H](NC(=O)[C@@H](Cc1c[nH]c2ccccc12)NC(=O)[C@H]1CSSC[C@@H](NC(=O)[C@@H](CCCCN)NC(=O)[C@H](N)CCCNC(=N)N)C(=O)NCC(=O)NCC(=O)N1)C(=O)N[C@H](Cc1c[nH]c2ccccc12)C(N)=O [(8)] (H-[dR][dK][dC]GG[dC][dW][dT][dW]-NH2; disulfide 3-6)
The IC50 of the first is 6.3-fold higher: 610 µM for the first, 97 µM for the second. The second is the more potent here.

`CC(C)[C@H](NC(=O)[C@H](Cc1c[nH]c2ccccc12)NC(=O)[C@@H](NC(=O)[C@H](Cc1c[nH]c2ccccc12)NC(=O)[C@@H]1NC(=O)CNC(=O)CNC(=O)[C@@H](NC(=O)[C@H](CCCCN)NC(=O)[C@@H](N)CCCNC(=N)N)CSSC1(C)C)[C@@H](C)O)C(N)=O` [(10)] (H-RKCGG[dPen]WTWV-NH2; disulfide 3-6) and `CC(C)[C@H](NC(=O)[C@H](Cc1c[nH]c2ccccc12)NC(=O)[C@@H](NC(=O)[C@H](Cc1c[nH]c2ccccc12)NC(=O)[C@@H]1CSSC(C)(C)[C@@H](NC(=O)[C@H](CCCCN)NC(=O)[C@@H](N)CCCNC(=N)N)C(=O)NCC(=O)NCC(=O)N1)[C@@H](C)O)C(N)=O` [(23)] (H-RK[dPen]GGCWTWV-NH2; disulfide 3-6) are within 1.5-fold of each other in IC50: 30 µM for the first, 36 µM for the second.

Going from `CC(C)[C@@H](NC(=O)[C@@H](Cc1c[nH]c2ccccc12)NC(=O)[C@H](NC(=O)[C@@H](Cc1ccccc1)NC(=O)[C@H]1CSSC[C@@H](NC(=O)[C@@H](CCCCN)NC(=O)[C@H](N)CCCNC(=N)N)C(=O)NCC(=O)NCC(=O)N1)[C@H](C)O)C(N)=O` [(14)] (H-[dR][dK][dC]GG[dC][dF][dT][dW][dV]-NH2; disulfide 3-6) to `CC(C)[C@@H](NC(=O)[C@@H](Cc1c[nH]c2ccccc12)NC(=O)[C@@H](CCC(N)=O)NC(=O)[C@H](NC(=O)[C@@H](Cc1c[nH]c2ccccc12)NC(=O)[C@H]1CSSC[C@@H](NC(=O)[C@@H](CCCCN)NC(=O)[C@H](N)CCCNC(=N)N)C(=O)NCC(=O)NCC(=O)N1)[C@H](C)O)C(N)=O` [(17)] (H-[dR][dK][dC]GG[dC][dW][dT][dQ][dW][dV]-NH2; disulfide 3-6), the IC50 rises from 40 µM to 225 µM (5.6-fold). The first is the more potent here.

Compared with `CC(C)[C@@H](NC(=O)[C@@H](Cc1c[nH]c2ccccc12)NC(=O)[C@H](NC(=O)[C@@H](Cc1c[nH]c2ccccc12)NC(=O)[C@H]1CSSC[C@@H](NC(=O)[C@@H](CCCCN)NC(=O)[C@H](N)CCCNC(=N)N)C(=O)N2CCC[C@@H]2C(=O)NCC(=O)N1)[C@H](C)O)C(N)=O` [(15)] (H-[dR][dK][dC][dP]G[dC][dW][dT][dW][dV]-NH2; disulfide 3-6), `CC(C)[C@@H](NC(=O)[C@@H](Cc1c[nH]c2ccccc12)NC(=O)[C@H](NC(=O)[C@@H](Cc1c[nH]c2ccccc12)NC(=O)[C@H]1CSSC[C@@H](NC(=O)[C@@H](CCCCN)NC(=O)[C@H](N)CCCNC(=N)N)C(=O)NCC(=O)N2CCC[C@@H]2C(=O)N1)[C@H](C)O)C(N)=O` [(16)] (H-[dR][dK][dC]G[dP][dC][dW][dT][dW][dV]-NH2; disulfide 3-6) is 480-fold lower in IC50: 485 µM for the first, 1 µM for the second. The second is the more potent here.

Going from `CC(C)[C@H](NC(=O)[C@H](Cc1c[nH]c2ccccc12)NC(=O)[C@@H](NC(=O)[C@H](Cc1c[nH]c2ccccc12)NC(=O)[C@@H]1CC(=O)NC[C@H](NC(=O)[C@H](CCCCN)NC(=O)[C@@H](N)CCCNC(=N)N)C(=O)NCC(=O)NCC(=O)N1)[C@@H](C)O)C(N)=O` [(22)] (H-RK[Dap]GGDWTWV-NH2; lactam 3-6) to `CC(C)[C@H](NC(=O)[C@H](Cc1c[nH]c2ccccc12)NC(=O)[C@@H](NC(=O)[C@H](Cc1c[nH]c2ccccc12)NC(=O)[C@@H]1NC(=O)CNC(=O)CNC(=O)[C@H](NC(=O)[C@H](CCCCN)NC(=O)[C@@H](N)CCCNC(=N)N)C(C)(C)SSC1(C)C)[C@@H](C)O)C(N)=O` [(24)] (H-RK[dPen]GG[dPen]WTWV-NH2; disulfide 3-6), the IC50 rises from 13 µM to 41 µM (3.2-fold).

Compared with `CC(C)[C@@H](NC(=O)[C@@H](Cc1c[nH]c2ccccc12)NC(=O)[C@H](NC(=O)[C@@H](Cc1c[nH]c2ccccc12)NC(=O)[C@H]1CSSC[C@@H](NC(=O)[C@H](N)CCCCN)C(=O)NCC(=O)NCC(=O)N1)[C@H](C)O)C(N)=O` [(26)] (H-[dK][dC]GG[dC][dW][dT][dW][dV]-NH2; disulfide 2-5), `CC(C)[C@@H](NC(=O)[C@@H](Cc1c[nH]c2ccccc12)NC(=O)[C@H](NC(=O)[C@@H](Cc1c[nH]c2ccccc12)NC(=O)[C@H]1CSSC[C@@H](N)C(=O)NCC(=O)NCC(=O)N1)[C@H](C)O)C(N)=O` [(28)] (H-[dC]GG[dC][dW][dT][dW][dV]-NH2; disulfide 1-4) is 12-fold higher in IC50: 26 µM for the first, 311 µM for the second. The first is the more potent here.
